{"source": "ChEMBL document CHEMBL5154944", "about": "“Discovery of Aryloxyphenyl-Heptapeptide Hybrids as Potent and Selective Matrix Metalloproteinase-2 Inhibitors for the Treatment of Idiopathic Pulmonary Fibrosis” (J Med Chem, 2022)", "key": {"[1]": {"species": "Homo sapiens", "assay": "Selectivity ratio of IC50 for recombinant human MMP12 to IC50 for recombinant human MMP2"}, "[2]": {"target": "72 kDa type IV collagenase (Homo sapiens, UniProt P08253)", "sequence (P08253 whole entry)": "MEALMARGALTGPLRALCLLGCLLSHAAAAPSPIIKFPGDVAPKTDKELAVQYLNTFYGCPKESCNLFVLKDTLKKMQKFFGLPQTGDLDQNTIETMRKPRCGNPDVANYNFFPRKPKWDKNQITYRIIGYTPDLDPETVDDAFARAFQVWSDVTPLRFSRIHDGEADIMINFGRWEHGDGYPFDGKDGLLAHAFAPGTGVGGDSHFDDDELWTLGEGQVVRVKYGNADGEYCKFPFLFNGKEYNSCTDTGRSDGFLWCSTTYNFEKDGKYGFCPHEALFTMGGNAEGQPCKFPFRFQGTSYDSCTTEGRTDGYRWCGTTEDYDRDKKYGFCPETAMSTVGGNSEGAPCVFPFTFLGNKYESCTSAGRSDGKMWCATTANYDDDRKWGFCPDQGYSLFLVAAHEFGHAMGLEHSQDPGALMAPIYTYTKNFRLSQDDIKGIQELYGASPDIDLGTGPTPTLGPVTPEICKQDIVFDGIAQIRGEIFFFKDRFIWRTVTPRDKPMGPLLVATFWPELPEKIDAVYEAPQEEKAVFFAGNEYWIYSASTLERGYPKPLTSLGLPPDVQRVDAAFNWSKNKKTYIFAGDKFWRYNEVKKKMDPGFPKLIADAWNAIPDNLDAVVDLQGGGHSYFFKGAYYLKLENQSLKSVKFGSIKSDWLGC"}, "[3]": {"target": "Collagenase 3 (Homo sapiens, UniProt P45452)"}, "[4]": {"target": "Macrophage metalloelastase (Homo sapiens, UniProt P39900)", "sequence (P39900 whole entry)": "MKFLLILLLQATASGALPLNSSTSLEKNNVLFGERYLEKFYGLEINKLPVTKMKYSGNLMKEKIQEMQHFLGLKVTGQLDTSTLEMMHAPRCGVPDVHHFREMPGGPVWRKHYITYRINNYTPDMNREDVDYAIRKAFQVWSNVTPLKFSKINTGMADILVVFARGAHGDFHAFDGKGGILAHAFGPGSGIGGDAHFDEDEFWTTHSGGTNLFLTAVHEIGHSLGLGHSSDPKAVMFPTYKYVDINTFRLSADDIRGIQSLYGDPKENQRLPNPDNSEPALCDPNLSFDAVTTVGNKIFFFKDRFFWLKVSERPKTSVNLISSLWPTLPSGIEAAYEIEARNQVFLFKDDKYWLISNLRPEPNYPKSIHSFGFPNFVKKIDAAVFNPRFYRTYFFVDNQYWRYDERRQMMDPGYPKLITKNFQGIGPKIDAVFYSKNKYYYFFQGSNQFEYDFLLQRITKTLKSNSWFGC"}, "[5]": {"target": "T1, Matrilysin (Homo sapiens, UniProt P09237)", "T1 sequence (P09237 whole entry)": "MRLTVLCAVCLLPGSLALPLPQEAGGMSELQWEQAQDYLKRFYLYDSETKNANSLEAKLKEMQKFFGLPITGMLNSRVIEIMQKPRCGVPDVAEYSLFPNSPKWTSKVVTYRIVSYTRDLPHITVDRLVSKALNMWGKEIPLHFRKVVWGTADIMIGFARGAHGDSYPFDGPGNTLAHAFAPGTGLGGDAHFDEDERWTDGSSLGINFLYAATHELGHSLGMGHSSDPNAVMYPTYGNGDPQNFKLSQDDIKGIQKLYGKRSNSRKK"}, "[6]": {"target": "Matrix metalloproteinase-14 (Homo sapiens, UniProt P50281)", "assay": "Inhibition of recombinant human MMP14 using MOCAc-Lys-Pro-Leu-Gly-Leu-A2pr(Dnp)-Ala-Arg-NH2 as substrate preincubated for 15 mins followed by substrate addition by fluroscence based assay"}}, "note": "Non-standard residues stand in square brackets, D forms with d. Residues, ends and D or L forms follow the SMILES beside them. *: point of attachment. Benzoyl(4-OPh(4-CONH2)) = NC(=O)c1ccc(Oc2ccc(C(=O)*)cc2)cc1; Benzenesulfonyl(4-OPh) = O=S(=O)(c1ccc(Oc2ccccc2)cc1)*; Benzenesulfonyl(4-Ph) = O=S(=O)(c1ccc(-c2ccccc2)cc1)*; X1 = O=C(CCCCS(=O)(=O)c1ccc(Oc2ccccc2)cc1)*; Benzoyl(4-OPh) = O=C(c1ccc(Oc2ccccc2)cc1)*; NMeI = CC[C@H](C)[C@H](NC)C(=O)O; NMeE = CN[C@@H](CCC(=O)O)C(=O)O; NMeL = CN[C@@H](CC(C)C)C(=O)O; NMeV = CN[C@H](C(=O)O)C(C)C; β3hP = O=C(O)C[C@@H]1CCCN1; Orn = NCCC[C@H](N)C(=O)O; Dab = NCC[C@H](N)C(=O)O; Ahx = NCCCCCC(=O)O; GABA = NCCCC(=O)O; βAla = NCCC(=O)O"}
{"smiles": "CC(C)C[C@H](NC(=O)[C@H](C)NC(=O)[C@H](CC(=O)O)NC(=O)[C@H](CC(N)=O)NC(=O)CCCNS(=O)(=O)c1ccc(Oc2ccccc2)cc1)C(=O)N(C)[C@@H](CC(C)C)C(=O)N1CCC[C@H]1CC(N)=O", "note": "({Benzenesulfonyl(4-OPh)-GABA}-NDAL[NMeL][β3hP]-NH2)", "values": [{"measurement": "Ratio IC50", "setting": "[1]", "value": 24}, {"measurement": "IC50", "setting": "[2]", "value": 0.055, "unit": "nM"}, {"measurement": "IC50", "setting": "[3]", "value": 15, "unit": "nM"}]}
{"smiles": "CSCC[C@H](NC(=O)[C@H](CC(C)C)NC(=O)[C@H](C)NC(=O)[C@H](CC(=O)O)NC(=O)[C@H](CC(N)=O)NC(=O)CCCCS(=O)(=O)c1ccc(Oc2ccccc2)cc1)C(=O)N1CCC[C@H]1C(N)=O", "note": "(X1-NDALMP-NH2)", "values": [{"measurement": "Ratio IC50", "setting": "[1]", "value": 69}, {"measurement": "IC50", "setting": "[2]", "value": 0.089, "unit": "nM"}, {"measurement": "IC50", "setting": "[3]", "value": 57, "unit": "nM"}]}
{"smiles": "CC(C)C[C@H](NC(=O)[C@H](CCN)NC(=O)[C@H](CC(=O)O)NC(=O)[C@H](CC(N)=O)NC(=O)CCCNC(=O)c1ccc(Oc2ccc(C(N)=O)cc2)cc1)C(=O)N(C)[C@@H](CCC(=O)O)C(=O)N1CCC[C@H]1CC(N)=O", "note": "({Benzoyl(4-OPh(4-CONH2))-GABA}-ND[Dab]L[NMeE][β3hP]-NH2)", "values": [{"measurement": "Ratio IC50", "setting": "[1]", "value": 23100}, {"measurement": "IC50", "setting": "[2]", "value": 0.17, "unit": "nM"}, {"measurement": "IC50", "setting": "[3]", "value": 540, "unit": "nM"}]}
{"smiles": "CC[C@H](C)[C@@H](C(=O)N1CCC[C@H]1CC(N)=O)N(C)C(=O)[C@H](CC(C)C)NC(=O)[C@H](CCCN)NC(=O)[C@H](CC(=O)O)NC(=O)[C@H](CC(N)=O)NC(=O)CCCNS(=O)(=O)c1ccc(Oc2ccccc2)cc1", "note": "({Benzenesulfonyl(4-OPh)-GABA}-ND[Orn]L[NMeI][β3hP]-NH2)", "values": [{"measurement": "Ratio IC50", "setting": "[1]", "value": 189}, {"measurement": "IC50", "setting": "[2]", "value": 0.61, "unit": "nM"}, {"measurement": "IC50", "setting": "[3]", "value": 134, "unit": "nM"}]}
{"smiles": "CC(C)C[C@H](NC(=O)[C@H](CCN)NC(=O)[C@H](CC(=O)O)NC(=O)[C@H](CC(N)=O)NC(=O)CCCNC(=O)c1ccc(Oc2ccccc2)cc1)C(=O)N(C)[C@@H](CCC(=O)O)C(=O)N1CCC[C@H]1CC(N)=O", "note": "({Benzoyl(4-OPh)-GABA}-ND[Dab]L[NMeE][β3hP]-NH2)", "values": [{"measurement": "Ratio IC50", "setting": "[1]", "value": 27200}, {"measurement": "IC50", "setting": "[3]", "value": 2000, "unit": "nM"}]}
{"smiles": "CSCC[C@H](NC(=O)[C@H](CC(C)C)NC(=O)[C@H](C)NC(=O)[C@H](CC(=O)O)NC(=O)[C@H](CC(N)=O)NC(=O)CNS(=O)(=O)c1ccc(-c2ccccc2)cc1)C(=O)N1CCC[C@H]1C(N)=O", "note": "({Benzenesulfonyl(4-Ph)}-GNDALMP-NH2)", "values": [{"measurement": "IC50", "setting": "[2]", "value": "> 100", "unit": "nM"}, {"measurement": "IC50", "setting": "[4]", "value": 4170, "unit": "nM"}, {"measurement": "IC50", "setting": "[3]", "value": "> 10000", "unit": "nM"}]}
{"smiles": "CC(C)C[C@H](NC(=O)[C@H](C)NC(=O)[C@H](CC(=O)O)NC(=O)[C@H](CC(N)=O)NC(=O)CCCNS(=O)(=O)c1ccc(Oc2ccccc2)cc1)C(=O)N(C)[C@H](C(=O)N1CCC[C@H]1CC(N)=O)C(C)C", "note": "({Benzenesulfonyl(4-OPh)-GABA}-NDAL[NMeV][β3hP]-NH2)", "values": [{"measurement": "Ratio IC50", "setting": "[1]", "value": 122}, {"measurement": "IC50", "setting": "[2]", "value": 0.046, "unit": "nM"}, {"measurement": "IC50", "setting": "[3]", "value": 25, "unit": "nM"}]}
{"smiles": "CSCC[C@H](NC(=O)[C@H](CC(C)C)NC(=O)[C@H](C)NC(=O)[C@H](CC(=O)O)NC(=O)[C@H](CC(N)=O)NC(=O)CCCNS(=O)(=O)c1ccc(Oc2ccccc2)cc1)C(=O)N1CCC[C@H]1C(N)=O", "note": "({Benzenesulfonyl(4-OPh)-GABA}-NDALMP-NH2)", "values": [{"measurement": "Ratio IC50", "setting": "[1]", "value": 145}, {"measurement": "IC50", "setting": "[2]", "value": 0.083, "unit": "nM"}, {"measurement": "IC50", "setting": "[3]", "value": 55, "unit": "nM"}]}
{"smiles": "CC(C)C[C@H](NC(=O)[C@H](CCN)NC(=O)[C@H](CC(=O)O)NC(=O)[C@H](CC(N)=O)NC(=O)CCCCCNC(=O)c1ccc(Oc2ccc(C(N)=O)cc2)cc1)C(=O)N(C)[C@@H](CCC(=O)O)C(=O)N1CCC[C@H]1CC(N)=O", "note": "({Benzoyl(4-OPh(4-CONH2))-Ahx}-ND[Dab]L[NMeE][β3hP]-NH2)", "values": [{"measurement": "Ratio IC50", "setting": "[1]", "value": 15600}, {"measurement": "IC50", "setting": "[2]", "value": 0.13, "unit": "nM"}, {"measurement": "IC50", "setting": "[3]", "value": 192, "unit": "nM"}]}
{"smiles": "CNC(=O)[C@H](Cc1c[nH]c2ccccc12)NC(=O)[C@@H](CC(=O)NO)CC(C)C", "note": "[ILOMASTAT]", "values": [{"measurement": "IC50", "setting": "[5]", "value": 5.1, "unit": "nM"}, {"measurement": "IC50", "setting": "[6]", "value": 1.1, "unit": "nM"}, {"measurement": "IC50", "setting": "[4]", "value": 0.46, "unit": "nM"}, {"measurement": "IC50", "setting": "[3]", "value": 0.28, "unit": "nM"}]}
{"smiles": "CSCC[C@H](NC(=O)[C@H](CC(C)C)NC(=O)[C@H](C)NC(=O)[C@H](CC(=O)O)NC(=O)[C@H](CC(N)=O)NC(=O)CCNS(=O)(=O)c1ccc(Oc2ccccc2)cc1)C(=O)N1CCC[C@H]1C(N)=O", "note": "({Benzenesulfonyl(4-OPh)-βAla}-NDALMP-NH2)", "values": [{"measurement": "Ratio IC50", "setting": "[1]", "value": 51}, {"measurement": "IC50", "setting": "[2]", "value": 0.49, "unit": "nM"}, {"measurement": "IC50", "setting": "[3]", "value": 114, "unit": "nM"}]}
{"smiles": "CC(C)C[C@H](NC(=O)[C@H](CCN)NC(=O)[C@H](CC(=O)O)NC(=O)[C@H](CC(N)=O)NC(=O)CCNC(=O)c1ccc(Oc2ccc(C(N)=O)cc2)cc1)C(=O)N(C)[C@@H](CCC(=O)O)C(=O)N1CCC[C@H]1CC(N)=O", "note": "({Benzoyl(4-OPh(4-CONH2))-βAla}-ND[Dab]L[NMeE][β3hP]-NH2)", "values": [{"measurement": "Ratio IC50", "setting": "[1]", "value": 8390}, {"measurement": "IC50", "setting": "[2]", "value": 0.53, "unit": "nM"}, {"measurement": "IC50", "setting": "[3]", "value": 146, "unit": "nM"}]}
